Experimental data taken from ChEMBL document CHEMBL1141847, “A new antibiotic nortriterpene quinone methide from Maytenus catingarum” (1999).
≈ marks a conversion by molar mass, not a printed value. Calls of active or inactive are those of the source. No cut-off for these calls is given here.

Legend:
Bacillus subtilis = test: Antimicrobial activity against Bacillus subtilis CECT39; format: functional
Salmonella typhimurium = test: Antimicrobial activity against sSalmonella Typhimurium UBC1; format: functional, organism-based; settings: Salmonella enterica subsp. enterica serovar Typhimurium
Staphylococcus aureus = test: Antimicrobial activity against Staphylococcus aureus ATCC 6538; format: functional
Escherichia coli = test: Antimicrobial activity against Escherichia coli CECT99; format: functional, organism-based
Candida albicans = test: Antimicrobial activity against Candida albicans UBC2; format: functional, organism-based

Structure (SMILES): COC(=O)[C@@]1(C)C[C@@H]2[C@](C)(CC1=O)C[C@H](O)[C@]1(C)C3=CC=C4C(=CC(=O)C(O)=C4C)[C@]3(C)CC[C@@]21C
- MIC (Bacillus subtilis): 1.25 µg/mL (≈ 2.53 µM)
- Activity (Salmonella typhimurium): inactive
- MIC (Staphylococcus aureus): 5 µg/mL (≈ 10.1 µM)
- Activity (Escherichia coli): inactive
- Activity (Candida albicans): inactive
